From patent US8436178B2, “Imidazoquinolines with immuno-modulating properties” (AstraZeneca AB, priority 2007, dated 2013)
Counter-ions that a name gives are not always drawn.

Molecular target: T1, human TLR7 (Homo sapiens, UniProt Q9NYK1)
T1 construct: expressed in transfected cells; host or cells: HEK293 cell line stably expressing the pNiFty2-SEAP reporter plasmid; TLR7 in pUNO vector, blasticidin selection
T1 sequence (Q9NYK1 27-1049): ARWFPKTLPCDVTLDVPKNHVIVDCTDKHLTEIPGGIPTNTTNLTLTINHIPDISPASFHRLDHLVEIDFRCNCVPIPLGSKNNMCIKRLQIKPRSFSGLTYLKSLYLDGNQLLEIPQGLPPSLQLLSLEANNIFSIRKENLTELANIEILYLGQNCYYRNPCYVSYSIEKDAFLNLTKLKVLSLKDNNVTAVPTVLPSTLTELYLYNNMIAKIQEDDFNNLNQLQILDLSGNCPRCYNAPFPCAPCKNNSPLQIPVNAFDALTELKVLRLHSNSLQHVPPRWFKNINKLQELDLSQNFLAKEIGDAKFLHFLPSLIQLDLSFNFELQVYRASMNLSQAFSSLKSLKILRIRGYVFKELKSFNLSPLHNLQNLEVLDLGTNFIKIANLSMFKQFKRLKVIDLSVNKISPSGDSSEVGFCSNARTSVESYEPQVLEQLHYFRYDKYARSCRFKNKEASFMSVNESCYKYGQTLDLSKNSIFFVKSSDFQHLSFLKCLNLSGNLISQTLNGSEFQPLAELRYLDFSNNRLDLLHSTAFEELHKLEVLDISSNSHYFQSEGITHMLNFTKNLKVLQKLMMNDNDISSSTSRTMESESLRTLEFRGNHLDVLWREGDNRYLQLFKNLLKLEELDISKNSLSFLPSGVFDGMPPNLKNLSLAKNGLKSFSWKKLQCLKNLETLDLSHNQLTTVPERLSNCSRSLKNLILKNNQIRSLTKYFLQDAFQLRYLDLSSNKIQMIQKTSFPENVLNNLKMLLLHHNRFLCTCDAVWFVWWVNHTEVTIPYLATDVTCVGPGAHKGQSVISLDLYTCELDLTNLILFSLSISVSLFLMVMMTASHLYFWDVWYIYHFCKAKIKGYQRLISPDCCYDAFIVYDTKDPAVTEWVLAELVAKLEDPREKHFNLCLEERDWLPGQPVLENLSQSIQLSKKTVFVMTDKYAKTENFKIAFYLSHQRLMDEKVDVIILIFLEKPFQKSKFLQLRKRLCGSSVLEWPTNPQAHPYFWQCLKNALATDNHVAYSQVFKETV
Experiment: Human TLR7 assay (SEAP reporter in HEK293 cells)
Assay type: cell-based
Details: SEAP induction in HEK293 cells expressing human TLR7, overnight incubation at 37° C., 0.1% DMSO
Source text: The most common variant sequence of human TLR7 (represented by the EMBL sequence AF240467) was cloned into the mammalian cell expression vector pUNO and transfected into a HEK293 cell line already stably expressing the pNiFty2-SEAP reporter plasmid; integration of the reporter gene was maintained by selection with the antibiotic zeocin. Transfectants with stable TLR7 expression were selected using the antibiotic blasticidin. In this reporter cell-line, expression of secreted alkaline phosphatase (SEAP) is controlled by an NFkB/ELAM-1 composite promoter comprising five NFkB sites combined with the proximal ELAM-1 promoter. TLR signaling leads to the translocation of NFkB and activation of the promoter results in expression of the SEAP gene. TLR7-specific activation was assessed by determining the level of SEAP produced following overnight incubation of the cells at 37° C. with the standard compound in the presence of 0.1% (v/v) dimethylsulfoxide (DMSO). Concentration dependent induction of SEAP production by compounds was expressed as the concentration of compound which produced half of the maximal level of SEAP induction for that compound (pEC50).

EC50 [µM] | Structure (SMILES)
0.316 | CCCCc1nc2c(N)nc3ccccc3c2n1CCCNCc1ccc(CC(=O)OC)cc1 [Example 1, Methyl 2-(4-((3-(4-amino-2-butyl-1H-imidazo[4,5-c]quinolin-1-yl)propylamino)methyl)phenyl)acetate]
0.398 | CCCCc1nc2c(N)nc3ccccc3c2n1CCCNCc1cccc(CC(=O)OC)c1 [Example 2, Methyl 2-(3-((3-(4-amino-2-butyl-1H-imidazo[4,5-c]quinolin-1-yl)propylamino)methyl)phenyl)acetate]
0.0398 | CCCCc1nc2c(N)nc3ccccc3c2n1CCCN(Cc1cccc(CC(=O)OC)c1)C(=O)CN(C)C [Example 4, Methyl 2-(3-((N-(3-(4-amino-2-butyl-1H-imidazo[4,5-c]quinolin-1-yl)propyl)-2-(dimethylamino)acetamido)methyl)phenyl)acetate]
0.316 | CCOCc1nc2c(N)nc3ccccc3c2n1CC1CCN(Cc2cccc(CC(=O)OC)c2)CC1 [Example 5, di-trifluoroacetate salt]
0.251 | CCCCc1nc2c(N)nc3ccccc3c2n1CCCN(CCN(C)C)Cc1ccc(CC(=O)OC)cc1 [Example 6, Methyl[4-({[3-(4-amino-2-butyl-1H-imidazo[4,5-c]quinolin-1-yl)propyl][2-(dimethylamino)ethyl]amino}methyl)phenyl]acetate]
0.398 | CCOCc1nc2c(N)nc3ccccc3c2n1CCCN(Cc1cccc(CC(=O)OC)c1)C(=O)CN(C)C [Example 7, Methyl 2-(3-((N-(3-(4-amino-2-(ethoxymethyl)-1H-imidazo[4,5-c]quinolin-1-yl)propyl)-2-(dimethylamino)acetamido)methyl)phenyl)acetate]
0.316 | CCCCc1nc2c(N)nc3ccccc3c2n1CCCN(Cc1cccc(CC(=O)OC)c1)C1CCN(C)CC1 [Example 8, Methyl 2-(3-(((3-(4-amino-2-butyl-1H-imidazo[4,5-c]quinolin-1-yl)propyl)(1-methylpiperidin-4-yl)amino)methyl)phenyl)acetate]
0.631 | CCCCc1nc2c(N)nc3ccccc3c2n1CCCN(Cc1ccc(CC(=O)OC)cc1)C1CCN(C)CC1 [Example 9, Methyl 2-(4-(((3-(4-amino-2-butyl-1H-imidazo[4,5-c]quinolin-1-yl)propyl)(1-methylpiperidin-4-yl)amino)methyl)phenyl)acetate]
0.501 | CCCCc1nc2c(N)nc3ccccc3c2n1CCCN(Cc1ccc(CC(=O)OC)cc1)C(=O)CN1CCN(C)CC1 [Example 10, Methyl 2-(4-((N-(3-(4-amino-2-butyl-1H-imidazo[4,5-c]quinolin-1-yl)propyl)-2-(4-methylpiperazin-1-yl)acetamido)methyl)phenyl)acetate]
0.251 | CCCCc1nc2c(N)nc3ccccc3c2n1CCCN(CCCN(C)C)Cc1cccc(CC(=O)OC)c1 [Example 11, Methyl 2-(3-(((3-(4-amino-2-butyl-1H-imidazo[4,5-c]quinolin-1-yl)propyl)(3-(dimethylamino)propyl)amino)methyl)phenyl)acetate]
0.251 | CCCCc1nc2c(N)nc3ccccc3c2n1CCCN(CCCN1CCOCC1)Cc1cccc(CC(=O)OC)c1 [Example 12, Methyl 2-(3-(((3-(4-amino-2-butyl-1H-imidazo[4,5-c]quinolin-1-yl)propyl)(3-morpholinopropyl)amino)methyl)phenyl)acetate]
0.158 | CCCCc1nc2c(N)nc3ccccc3c2n1CCCN(CCCN(C)CC)Cc1cccc(CC(=O)OC)c1 [Example 13, Methyl 2-(3-(((3-(4-amino-2-butyl-1H-imidazo[4,5-c]quinolin-1-yl)propyl)(3-(ethyl(methyl)amino)propyl)amino)methyl)phenyl)acetate]
0.251 | CCCCc1nc2c(N)nc3ccccc3c2n1CCCN(CCCN1CCN(C)CC1)Cc1cccc(CC(=O)OC)c1 [Example 14, Methyl 2-(3-(((3-(4-amino-2-butyl-1H-imidazo[4,5-c]quinolin-1-yl)propyl)(3-(4-methylpiperazin-1-yl)propyl)amino)methyl)phenyl)acetate]
